In ChEMBL document CHEMBL4152288, “Medicinal Chemistry and Use of Myosin II Inhibitor ( S)-Blebbistatin and Its Derivatives” (J Med Chem, 2018):
Converted amounts (≈) assume the structure as drawn. Blank lines part the entries; values can stand above or below the compound they belong to.

Experiments:
Oryctolagus cuniculus [1] = species on record: Oryctolagus cuniculus; test: Inhibition of rabbit skeletal myosin 2 ATPase activity at 50 uM relative to control
Oryctolagus cuniculus [2] = species on record: Oryctolagus cuniculus; test: Inhibition of rabbit skeletal myosin 2 ATPase activity at 5 uM relative to control
[3] = biological target: Myosin-2 heavy chain (Dictyostelium discoideum) (UniProt P08799); test: Inhibition of Dictyostelium discoideum myosin 2 ATPase activity at 50 uM relative to control
Chain of Myosin-2 heavy chain (Dictyostelium discoideum) (P08799 whole entry): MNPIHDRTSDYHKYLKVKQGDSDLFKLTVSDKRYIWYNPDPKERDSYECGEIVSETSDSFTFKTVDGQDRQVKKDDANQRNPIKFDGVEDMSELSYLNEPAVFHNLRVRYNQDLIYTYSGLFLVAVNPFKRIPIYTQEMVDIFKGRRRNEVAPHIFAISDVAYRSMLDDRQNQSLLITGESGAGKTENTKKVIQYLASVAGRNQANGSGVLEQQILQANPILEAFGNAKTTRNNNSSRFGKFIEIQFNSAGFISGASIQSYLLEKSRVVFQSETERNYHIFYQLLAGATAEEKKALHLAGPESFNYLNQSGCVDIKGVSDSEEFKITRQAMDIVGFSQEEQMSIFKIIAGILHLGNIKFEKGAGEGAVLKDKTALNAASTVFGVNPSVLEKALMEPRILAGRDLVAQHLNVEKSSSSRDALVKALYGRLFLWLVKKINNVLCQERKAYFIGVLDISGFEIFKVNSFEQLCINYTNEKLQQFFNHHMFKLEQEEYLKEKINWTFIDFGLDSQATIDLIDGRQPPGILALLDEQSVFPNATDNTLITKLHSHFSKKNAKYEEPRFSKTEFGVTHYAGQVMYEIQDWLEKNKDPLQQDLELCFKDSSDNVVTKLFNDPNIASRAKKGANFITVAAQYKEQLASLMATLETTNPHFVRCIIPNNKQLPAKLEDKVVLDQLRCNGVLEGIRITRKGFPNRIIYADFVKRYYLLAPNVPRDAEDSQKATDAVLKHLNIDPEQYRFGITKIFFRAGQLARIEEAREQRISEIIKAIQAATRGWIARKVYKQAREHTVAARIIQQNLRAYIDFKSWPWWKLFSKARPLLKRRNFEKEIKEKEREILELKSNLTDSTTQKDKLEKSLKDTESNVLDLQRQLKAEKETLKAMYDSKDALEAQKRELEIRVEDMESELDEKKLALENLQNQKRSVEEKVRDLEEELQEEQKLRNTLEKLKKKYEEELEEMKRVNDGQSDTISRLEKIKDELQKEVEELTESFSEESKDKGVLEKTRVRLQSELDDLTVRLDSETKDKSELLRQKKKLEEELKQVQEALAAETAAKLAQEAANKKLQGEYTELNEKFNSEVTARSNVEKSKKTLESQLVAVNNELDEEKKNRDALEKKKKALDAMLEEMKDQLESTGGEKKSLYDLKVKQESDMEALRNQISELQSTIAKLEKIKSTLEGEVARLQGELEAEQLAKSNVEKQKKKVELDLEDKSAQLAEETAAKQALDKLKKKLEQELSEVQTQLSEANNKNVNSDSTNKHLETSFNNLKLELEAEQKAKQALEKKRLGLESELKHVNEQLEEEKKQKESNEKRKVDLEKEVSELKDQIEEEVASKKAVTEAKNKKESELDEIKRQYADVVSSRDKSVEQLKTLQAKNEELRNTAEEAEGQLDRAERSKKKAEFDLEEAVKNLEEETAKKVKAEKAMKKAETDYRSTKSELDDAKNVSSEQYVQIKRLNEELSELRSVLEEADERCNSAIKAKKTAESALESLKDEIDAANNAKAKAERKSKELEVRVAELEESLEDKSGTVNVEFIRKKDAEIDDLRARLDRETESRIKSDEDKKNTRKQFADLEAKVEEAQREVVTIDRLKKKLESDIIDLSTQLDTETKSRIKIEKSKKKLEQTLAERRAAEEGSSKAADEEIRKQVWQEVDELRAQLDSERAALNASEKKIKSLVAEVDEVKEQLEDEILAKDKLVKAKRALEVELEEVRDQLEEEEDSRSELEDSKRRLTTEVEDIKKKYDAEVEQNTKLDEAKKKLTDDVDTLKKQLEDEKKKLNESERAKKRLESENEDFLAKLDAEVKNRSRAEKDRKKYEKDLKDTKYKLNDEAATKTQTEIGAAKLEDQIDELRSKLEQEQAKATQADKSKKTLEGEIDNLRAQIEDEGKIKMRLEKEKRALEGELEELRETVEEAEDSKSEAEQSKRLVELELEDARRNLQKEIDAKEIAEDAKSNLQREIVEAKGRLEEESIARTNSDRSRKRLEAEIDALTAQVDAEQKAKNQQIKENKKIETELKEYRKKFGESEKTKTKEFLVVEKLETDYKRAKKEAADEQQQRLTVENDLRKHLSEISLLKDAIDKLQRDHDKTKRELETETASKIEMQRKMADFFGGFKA

Myosin-4 = Myosin-4 (Oryctolagus cuniculus, UniProt Q28641); test: Inhibition of rabbit skeletal muscle myosin 2
Chain of Myosin-4 (Q28641 whole entry): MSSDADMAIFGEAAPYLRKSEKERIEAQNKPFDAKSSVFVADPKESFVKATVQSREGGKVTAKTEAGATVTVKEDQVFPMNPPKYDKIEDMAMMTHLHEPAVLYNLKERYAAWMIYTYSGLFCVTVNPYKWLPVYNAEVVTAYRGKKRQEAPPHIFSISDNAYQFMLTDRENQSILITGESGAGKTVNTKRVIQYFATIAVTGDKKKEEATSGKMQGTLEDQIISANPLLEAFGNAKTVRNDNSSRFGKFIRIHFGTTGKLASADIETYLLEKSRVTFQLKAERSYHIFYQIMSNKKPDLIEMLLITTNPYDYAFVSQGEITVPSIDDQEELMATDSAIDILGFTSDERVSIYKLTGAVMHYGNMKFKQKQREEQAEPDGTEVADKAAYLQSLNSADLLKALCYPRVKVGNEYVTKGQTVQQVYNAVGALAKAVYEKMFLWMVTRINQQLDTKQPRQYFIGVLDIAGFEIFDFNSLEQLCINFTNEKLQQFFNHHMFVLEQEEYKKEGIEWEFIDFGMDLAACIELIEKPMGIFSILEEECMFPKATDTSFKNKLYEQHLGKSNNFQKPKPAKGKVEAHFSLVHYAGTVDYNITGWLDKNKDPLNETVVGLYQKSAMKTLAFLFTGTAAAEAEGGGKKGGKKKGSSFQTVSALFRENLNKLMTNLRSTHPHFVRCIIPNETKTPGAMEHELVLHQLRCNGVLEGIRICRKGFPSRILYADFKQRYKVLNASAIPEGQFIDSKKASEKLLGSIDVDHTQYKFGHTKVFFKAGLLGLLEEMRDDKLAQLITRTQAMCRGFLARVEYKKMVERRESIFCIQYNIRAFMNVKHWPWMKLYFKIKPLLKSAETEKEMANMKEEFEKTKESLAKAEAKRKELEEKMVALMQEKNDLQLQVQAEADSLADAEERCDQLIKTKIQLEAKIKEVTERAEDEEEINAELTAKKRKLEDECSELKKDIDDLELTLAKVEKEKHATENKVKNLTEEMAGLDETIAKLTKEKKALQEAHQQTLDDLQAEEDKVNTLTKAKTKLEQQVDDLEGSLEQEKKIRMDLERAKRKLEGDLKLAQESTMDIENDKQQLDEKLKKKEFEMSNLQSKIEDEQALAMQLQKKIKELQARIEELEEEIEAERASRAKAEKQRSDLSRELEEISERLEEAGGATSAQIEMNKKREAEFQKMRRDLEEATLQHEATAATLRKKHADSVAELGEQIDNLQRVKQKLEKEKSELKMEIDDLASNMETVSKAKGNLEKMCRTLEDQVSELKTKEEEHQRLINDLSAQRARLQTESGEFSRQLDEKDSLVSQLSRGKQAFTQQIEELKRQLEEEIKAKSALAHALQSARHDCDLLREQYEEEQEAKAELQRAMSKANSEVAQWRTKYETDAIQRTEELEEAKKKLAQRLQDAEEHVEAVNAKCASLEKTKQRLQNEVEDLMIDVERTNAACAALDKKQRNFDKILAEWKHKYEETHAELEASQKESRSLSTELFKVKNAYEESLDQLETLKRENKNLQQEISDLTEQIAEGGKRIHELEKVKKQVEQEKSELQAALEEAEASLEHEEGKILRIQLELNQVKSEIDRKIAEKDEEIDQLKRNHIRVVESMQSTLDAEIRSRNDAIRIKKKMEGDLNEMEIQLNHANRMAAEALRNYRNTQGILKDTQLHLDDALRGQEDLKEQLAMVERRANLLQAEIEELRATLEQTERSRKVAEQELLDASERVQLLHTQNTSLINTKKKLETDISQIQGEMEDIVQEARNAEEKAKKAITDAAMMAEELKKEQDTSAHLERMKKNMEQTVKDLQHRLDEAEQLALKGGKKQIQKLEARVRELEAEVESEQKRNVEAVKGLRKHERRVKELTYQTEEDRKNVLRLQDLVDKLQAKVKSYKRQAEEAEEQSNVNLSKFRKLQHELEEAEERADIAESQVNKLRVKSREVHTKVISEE

Myosin-2 heavy chain [4] = biological target: T1, Myosin-2 heavy chain (Dictyostelium discoideum, UniProt P08799); test: Inhibition of Dictyostelium discoideum myosin 2 ATPase activity by NADH-coupled assay
T1 sequence (P08799 whole entry): as the sequence (P08799 whole entry) above

Capan-2 = test: Cytotoxicity against human Capan2 cells assessed as cell death at 400 uM after 24 hrs; assay type: functional
[5] = Toxicity in zebrafish embryo assessed as mortality at 10 uM in presence 0.4 uJ/cm2 of irradiation measured after 36 hrs relative to control; assay type: organism-based, Danio rerio; conditions: zebrafish embryos, read-out: Activity
[6] = Toxicity in Dictyostelium discoideum assessed as mortality at 20 uM after 3 days relative to control; assay type: organism-based; conditions: Dictyostelium discoideum cells, read-out: Activity
PANC-1 = test: Cytotoxicity against human PANC1 cells assessed as cell death at 400 uM after 24 hrs; assay type: functional
MIA PaCa-2 = test: Cytotoxicity against human MIAPaCa2 cells assessed as cell death at 400 uM after 24 hrs; assay type: functional
DU-145 [7] = test: Cytotoxicity against human DU145 cells assessed as cell death at 200 uM after 24 hrs relative to control; assay type: functional
BXPC-3 = test: Cytotoxicity against human BxPC3 cells assessed as cell death at 400 uM after 24 hrs; assay type: functional
[8] = Cytotoxicity against F11-hTERT cells (unknown origin) assessed as cell death at 200 uM after 24 hrs relative to control; assay type: functional
[9] = Steady state aqueous solubility of the compound in 0.1 % DMSO buffer at 25 degC; assay type: physicochemical; conditions: aqueous buffer with 0.1% DMSO
[10] = Cytotoxicity against F11-hTERT cells (unknown origin) assessed as cell death at 200 uM after 3 hrs relative to control; assay type: functional
U-87 MG [11] = test: Cytotoxicity against human U87 cells assessed as cell death at 200 uM after 24 hrs relative to control; assay type: functional, U-87MG ATCC
HeLa = test: Cytotoxicity against human HeLa cells assessed as cell death at 20 uM measured after 3 days by trypan blue based light microscopy relative to control
[12] = Steady state aqueous solubility of the compound in 10 % DMSO buffer up to 240 mins; assay type: physicochemical; conditions: 4 h
DU-145 [13] = test: Cytotoxicity against human DU145 cells assessed as cell death at 200 uM after 3 hrs relative to control; assay type: functional
[14] = Cytotoxicity against human Fem-X cells assessed as cell death at 200 uM after 24 hrs relative to control; assay type: functional
LNCaP [15] = test: Cytotoxicity against human LNCAP cells assessed as cell death at 200 uM after 3 hrs relative to control; assay type: functional
U-87 MG [16] = test: Cytotoxicity against human U87 cells assessed as cell death at 200 uM after 3 hrs relative to control; assay type: functional, U-87MG ATCC
LNCaP [17] = test: Cytotoxicity against human LNCAP cells assessed as cell death at 200 uM after 24 hrs relative to control; assay type: functional
[18] = Cytotoxicity against human Fem-X cells assessed as cell death at 200 uM after 3 hrs relative to control; assay type: functional
[19] = Inhibition of human myosin 2a ATPase activity
Unconventional myosin-Ib = Unconventional myosin-Ib (Rattus norvegicus, UniProt Q05096); test: Inhibition of rat myosin 1b by NADH-coupled spectrophotometric analysis
Myosin-10 = Myosin-10 (Homo sapiens, UniProt P35580); test: Inhibition of human non-muscle myosin 2b
Unconventional myosin-Va = Unconventional myosin-Va (Mus musculus, UniProt Q99104); test: Inhibition of mouse myosin 5a by NADH-coupled spectrophotometric analysis
[20] = biological target: Nonmuscle myosin heavy chain (Gallus gallus, UniProt Q789A4); test: Inhibition of chicken non-muscle myosin 2b by NADH-coupled spectrophotometric analysis
[21] = biological target: Myosin-2 heavy chain, non muscle (Acanthamoeba castellanii, UniProt P05659); test: Inhibition of dephosphorylated Acanthamoeba non muscle myosin 2 by NADH-coupled spectrophotometric analysis
[22] = Inhibition of chicken smooth muscle myosin 2 ATPase activity preincubated for 60 mins followed by ATP addition measured after 10 mins by malachite green based assay
Myosin-9 = Myosin-9 (Homo sapiens, UniProt P35579); test: Inhibition of human non-muscle myosin 2a
Myosin IC heavy chain = Myosin IC heavy chain (Acanthamoeba castellanii, UniProt P10569); test: Inhibition of dephosphorylated Acanthamoeba […] myosin 1c by NADH-coupled spectrophotometric analysis
[23] = Inhibition of bay scallop striated muscle myosin heavy chain
Unconventional myosin-XV = Unconventional myosin-XV (Homo sapiens, UniProt Q9UKN7); test: Inhibition of human myosin 15 by NADH-coupled spectrophotometric analysis
[24] = biological target: Myosin heavy chain, non-muscle (Drosophila melanogaster, UniProt Q99323); test: Inhibition of fruit fly non-muscle myosin 2
Myosin-7 = Myosin-7 (Sus scrofa, UniProt P79293); test: Inhibition of pig beta cardiac myosin 2 by NADH-coupled spectrophotometric analysis
[25] = Inhibition of Meleagris gallopavo smooth muscle myosin 2 ATPase activity
[26] = Inhibition of Bos taurus smooth muscle myosin 2 ATPase activity
Unconventional myosin-X = Unconventional myosin-X (Bos taurus, UniProt P79114); test: Inhibition of bovine myosin x by NADH-coupled spectrophotometric analysis
Myosin-14 = Myosin-14 (Mus musculus, UniProt Q6URW6); test: Inhibition of mouse non-muscle myosin 2c
Myosin-2 heavy chain [27] = biological target: T1, Myosin-2 heavy chain; test: Inhibition of Dictyostelium discoideum myosin 2 ATPase activity

inhibition (Oryctolagus cuniculus [1]): 95% | inhibition (Oryctolagus cuniculus [2]): 86% | inhibition [3]: 88%
Structure (SMILES): Cc1cccc2c1C(=O)[C@]1(O)CCN(c3ccccc3)C1=N2

inhibition (Oryctolagus cuniculus [1]): 95% | inhibition (Oryctolagus cuniculus [2]): 84% | inhibition [3]: 88%
Structure (SMILES): O=C1c2ccccc2N=C2N(c3ccccc3)CC[C@@]12O

IC50 (Myosin-4): 0.4 µM | IC50 (Myosin-2 heavy chain [4]): 2.3 µM
Structure (SMILES): Cc1ccc2c(c1)C(=O)[C@]1(O)CCN(c3ccc([N+](=O)[O-])cc3)C1=N2

inhibition (Oryctolagus cuniculus [1]): 72% | inhibition (Oryctolagus cuniculus [2]): 31% | inhibition [3]: 35%
Structure (SMILES): Cc1cccc2c1N=C1N(c3ccccc3)CC[C@@]1(O)C2=O

Structure (SMILES): Cc1ccc2c(c1)C(=O)[C@]1(O)CCN(c3ccccc3)C1=N2
Activity (Capan-2): 45% | mortality at 36 h, 10 µM [5]: 100% | mortality at 72 h, 20 µM [6]: 0% | Activity (PANC-1): 0% | Activity (MIA PaCa-2): 20% | Activity (DU-145 [7]): 90% | Activity (BXPC-3): 25% | Activity [8]: 85% | solubility [9]: 7 to 11 µM (≈ 2.05 to 3.22 µg/mL) | Activity [10]: 30% | Activity (U-87 MG [11]): 65% | Activity (HeLa): 90% | solubility [12]: 80 µM (≈ 23.4 µg/mL) | Activity (DU-145 [13]): 30% | Activity [14]: 100% | Activity (LNCaP [15]): 10% | Activity (U-87 MG [16]): 40% | Activity (LNCaP [17]): 96% | Activity [18]: 30%

inhibition (Oryctolagus cuniculus [1]): 94% | inhibition (Oryctolagus cuniculus [2]): 86% | inhibition [3]: 90%
Structure (SMILES): Cc1ccc2c(c1)N=C1N(c3ccccc3)CC[C@@]1(O)C2=O

IC50 [19]: 28 µM
Structure (SMILES): O=C1c2ccc([N+](=O)[O-])cc2N=C2N(c3ccccc3)CC[C@@]12O

IC50 (Unconventional myosin-Ib): > 150 µM | IC50 (Myosin-10): 4.6 µM | IC50 (Unconventional myosin-Va): > 150 µM | IC50 [20]: 1.8 µM | IC50 [21]: 83 µM | IC50 [22]: 5.5 to 23.5 µM | IC50 (Myosin-9): 4 to 14 µM | IC50 (Myosin-4): 0.22 to 4.32 µM | IC50 (Myosin IC heavy chain): > 150 µM | IC50 [23]: 2.3 µM | IC50 (Unconventional myosin-XV): > 100 µM | IC50 [24]: > 200 µM | IC50 (Myosin-7): 1.2 µM | IC50 [25]: 80 µM | IC50 [26]: 4.3 to 11 µM | IC50 (Unconventional myosin-X): > 150 µM | IC50 (Myosin-14): 3.2 µM
Structure (SMILES): Cc1ccc2c(c1)C(=O)C1(O)CCN(c3ccccc3)C1=N2 (racemic)

IC50 (Myosin-2 heavy chain [27]): 1.9 µM
Structure (SMILES): Cc1ccc2c(c1)C(=O)[C@]1(O)CCN(c3ccc(Cl)cc3)C1=N2

IC50 (Myosin-2 heavy chain [4]): 5.2 µM
Structure (SMILES): Cc1ccc2c(c1)C(=O)[C@]1(O)CCN(c3ccc(N=[N+]=[N-])cc3)C1=N2
